{"source": "patent US20240189272A1", "about": "“FORMULATIONS AND COMPOSITIONS OF DOCETAXEL” (Zhuhai Beihai Biotech Co., Ltd., priority 2017, published 2024)", "origin": "cited, not measured here", "key": {"[1]": {"conditions": "attributed in part to polysorbate 80"}}, "note": "Entries after “also recorded” stand apart in the source; their conditions may differ.", "data": [{"smiles": "CC(=O)O[C@@]12CO[C@@H]1C[C@H](O)[C@@]1(C)C(=O)[C@H](O)C3=C(C)[C@@H](OC(=O)[C@H](O)[C@@H](NC(=O)OC(C)(C)C)c4ccccc4)C[C@@](O)([C@@H](OC(=O)c4ccccc4)[C@H]21)C3(C)C", "note": "[docetaxel]", "values": [{"measurement": "in vitro binding to plasma proteins", "setting": "plasma proteins; in three cancer patients", "result": "approximately 97%"}, {"measurement": "protein bound", "setting": "plasma proteins; in vitro studies, mainly to α1-acid glycoprotein, albumin, and lipoproteins", "result": "about 94%"}, {"measurement": "potency in inhibiting microtubule depolymerization relative to paclitaxel", "setting": "microtubules", "result": "about twice as potent as paclitaxel"}, {"measurement": "water solubility", "result": "practically insoluble in water; also recorded: very poor water solubility"}, {"measurement": "side-effects associated with administration", "setting": "[1]", "result": "unpredictable (acute) hypersensitivity reactions and cumulative fluid retention"}]}]}
